Measurements as given in USRE37781E1, “Substituted cyclic carbonyls and derivatives thereof useful as retroviral protease inhibitors” (DuPont Pharmaceuticals Company, priority 1991, dated 2002).
Converted amounts (≈) assume the structure as drawn. Like-named read-outs stand apart in the source and are kept apart here.

Assays:
HIV-1 (RF) in MT-2 cells = experiment: microbe, parasite or virus in culture; format: cell-based
Method in brief: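 Read-out: gag and pol viral RNA captured by 5′-biotinylated oligonucleotides on streptavidin-coated wells, detected with alkaline phosphatase-linked reporter oligonucleotides, calibrated against BH10 in vitro transcripts. Virus stocks (RF, MN, IIIB) come from H9 cultures; MT-2 host cells kept in RPMI 1640, 5% FCS.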

HIV protease = target: T1, HIV protease (Human immunodeficiency virus type 1 group M subtype B, UniProt P04585); experiment: biochemical; design: species or system HIV-1
T1 construct: plasmid containing HIV protease under the control of an inducible T7 promoter; made in house; host or cells: E. coli (inclusion bodies, T7 promoter)
Protocol: HIV Protease Inhibition Assay—Spectroscopic Method
Inclusion bodies were solubilized in 8M urea, 50 mM tris pH 8.0. Protease activity was recovered by dilution 20-fold into buffer containing 50 mM sodium acetate pH 5.5, 1 mM EDTA, 10% glycerol and 5% ethylene glycol. Enzyme was used at a final concentration of 1.0-10 ug/ml.
Stock solutions of 10 mM were prepared in DMSO.
All further dilutions were done in DMSO.

[1] = Human immunodeficiency virus 1, MT2, Table 1e, read-out: IC90
[2] = Human immunodeficiency virus 1, MT2, 24 h, Table 1d, upper part, read-out: IC90
[3] = Table 1d, upper part, read-out: Ki
[4] = Human immunodeficiency virus 1, MT2, Table 1c, read-out: IC90
[5] = second table headed Table 2A, read-out: Ki

O=C1N(Cc2cccc(O)c2)C(C(F)Cc2ccccc2)[C@@H](O)[C@@H](Cc2ccccc2)N1Cc1cccc(O)c1 (some centres unmarked) [Example 8F]
IC90 (HIV-1 (RF) in MT-2 cells; [1]): < 10 µg/mL | Ki (HIV protease; Ki): 10 to 1000 nM

[N-]=[N+]=NC(Cc1ccccc1)C1C(O)C(Cc2ccccc2)N(Cc2ccc3ccccc3c2)C(=O)N1Cc1ccc2ccccc2c1 (centres unmarked) [Example 7Y]
IC90 (HIV-1 (RF) in MT-2 cells; [1]): > 100 µg/mL | Ki (HIV protease; Table 1e, read-out: Ki): 10 to 1000 nM

O=C1N(Cc2cccc(OCc3ccccc3)c2)C(Cc2ccccc2)C(O)C2C(Cc3ccccc3)N12 (centres unmarked) [Example 21E]
IC90 (HIV-1 (RF) in MT-2 cells; Table 2j): ++/+ (The ++/+ is used in the cases where an IC90 was determined to be >50 μg/mL) | Ki (HIV protease; Table 2j, read-out: Ki): > 1000 nM

CCCC1(OC)OC2C(O1)C(Cc1ccccc1)N(Cc1ccc3ccccc3c1)C(=O)N(Cc1ccc3ccccc3c1)C2Cc1ccccc1 (centres unmarked) [Example 7S]
IC90 (HIV-1 (RF) in MT-2 cells; [2]): > 50 µg/mL | Ki (HIV protease; [3]): > 1000 nM

O=C1N(Cc2ccc3ccccc3c2)[C@H](Cc2ccccc2)C[C@@H](O)[C@@H](Cc2ccccc2)N1Cc1ccc2ccccc2c1 [Example 7T]
IC90 (HIV-1 (RF) in MT-2 cells; [2]): > 100 µg/mL | Ki (HIV protease; [3]): < 10 nM

N#CN=C1N(Cc2ccc(C#N)cc2)C(Cc2ccccc2)C(O)C(O)C(Cc2ccccc2)N1Cc1ccc(C#N)cc1 (centres unmarked) [Example 1CG]
IC90 (HIV-1 (RF) in MT-2 cells; [4]): < 10 µg/mL | Ki (HIV protease; Ki): 10 to 1000 nM

CC(=O)OC1C(Cc2ccccc2)N(Cc2ccccc2)C(=O)N2C(Cc3ccccc3)C12 (centres unmarked) [Example 21B]
IC90 (HIV-1 (RF) in MT-2 cells; Table 2j): ++/+ (The ++/+ is used in the cases where an IC90 was determined to be >50 μg/mL) | Ki (HIV protease; Table 2j, read-out: Ki): > 1000 nM

CS(=O)(=O)OC1C(O)C(Cc2ccccc2)N(Cc2ccc3ccccc3c2)C(=O)N(Cc2ccc3ccccc3c2)C1Cc1ccccc1 (centres unmarked) [Example 7o]
IC90 (HIV-1 (RF) in MT-2 cells; [2]): < 10 µg/mL | Ki (HIV protease; [3]): 10 to 1000 nM

O=C1N(Cc2cccc(-c3noc(C(F)(F)F)n3)c2)[C@H](CCc2ccccc2)[C@@H](O)[C@@H](Cc2ccccc2)N1Cc1cccc(-c2noc(C(F)(F)F)n2)c1 [Example 8X]
IC90 (HIV-1 (RF) in MT-2 cells; [1]): 10 to 100 µg/mL (≈ 13.1 to 131 µM) | Ki (HIV protease; Table 1e, read-out: Ki): 10 to 1000 nM

N#Cc1cccc(CN2C(=O)N(Cc3cccc(C#N)c3)[C@H](Cc3ccccc3)[C@H](O)C2CCc2ccccc2)c1 (some centres unmarked) [Example 8O]
IC90 (HIV-1 (RF) in MT-2 cells; Table 1e): +++ (+++=<10 μg/mL) | Ki (HIV protease; Ki): 10 to 1000 nM

O=C1N(Cc2ccc(CO)cc2)[C@H](CCc2ccccc2)C[C@@H](Cc2ccccc2)N1Cc1ccc(CO)cc1 [Example 8AC]
IC90 (HIV-1 (RF) in MT-2 cells; [1]): < 10 µg/mL | Ki (HIV protease; Table 1e, read-out: Ki): 10 to 1000 nM

NC(=O)c1cccc(CN2C(=O)N(Cc3cccc(C(N)=O)c3)C(Cc3ccccc3)C(O)C2CCc2ccccc2)c1 (centres unmarked) [Example 8AP]
IC90 (HIV-1 (RF) in MT-2 cells; [1]): > 100 µg/mL | Ki (HIV protease; Table 1e, read-out: Ki): > 1000 nM

O=C1N(Cc2cccc(CO)c2)C(Cc2ccccc2)C(O)C(C(Br)Cc2ccccc2)N1Cc1cccc(CO)c1 (centres unmarked) [Example 8V]
IC90 (HIV-1 (RF) in MT-2 cells; [1]): < 10 µg/mL | Ki (HIV protease; Table 1e, read-out: Ki): 10 to 1000 nM

NC(=NO)c1cccc(CN2C(=O)N3C(Cc4ccccc4)C3C(O)C2Cc2ccccc2)c1 (centres unmarked) [Example 21H]
IC90 (HIV-1 (RF) in MT-2 cells; Table 2j): +++ (+++=<10 μg/mL) | Ki (HIV protease; Table 2j, read-out: Ki): 10 to 1000 nM

O=C1N(Cc2cccc(CO)c2)[C@H](CCc2ccccc2)[C@@H](O)[C@@H](Cc2ccccc2)N1Cc1cccc(CO)c1 [Example 8Z]
IC90 (HIV-1 (RF) in MT-2 cells; [1]): < 10 µg/mL | Ki (HIV protease; Ki): < 10 nM

O=C1NC(Cc2ccccc2)C(O)C2C(Cc3ccccc3)N12 (centres unmarked) [Example 21A]
IC90 (HIV-1 (RF) in MT-2 cells; Table 2j): ++/+ (The ++/+ is used in the cases where an IC90 was determined to be >50 μg/mL) | Ki (HIV protease; Table 2j, read-out: Ki): > 1000 nM

C=CCN1C(=O)N(CC=C)C(Cc2ccccc2)C(OC(C)=O)C(O)C1Cc1ccccc1 (centres unmarked) [Example 7A]
IC90 (HIV-1 (RF) in MT-2 cells; [2]): < 10 µg/mL | Ki (HIV protease; [3]): > 1000 nM

O=C1N(Cc2ccc3ccccc3c2)C(Cc2ccccc2)C2OS(=O)OC2C(Cc2ccccc2)N1Cc1ccc2ccccc2c1 (centres unmarked) [Example 7M]
IC90 (HIV-1 (RF) in MT-2 cells; [2]): < 10 µg/mL | Ki (HIV protease; [3]): < 10 nM

NC(=O)c1cccc(CN2C(=O)N3C(Cc4ccccc4)C3C(O)C2Cc2ccccc2)c1 (centres unmarked) [Example 21G]
IC90 (HIV-1 (RF) in MT-2 cells; Table 2j): ++ (++=10 to 100 μg/mL) | Ki (HIV protease; Table 2j, read-out: Ki): 10 to 1000 nM

C=CCN1C(=O)N(CCCC)C(Cc2ccccc2)C2OS(=O)OC2C1Cc1ccccc1 (centres unmarked) [Example 7D]
IC90 (HIV-1 (RF) in MT-2 cells; [2]): 10 to 100 µg/mL (≈ 21.3 to 213 µM) | Ki (HIV protease; [3]): < 10 nM

O=C1N(Cc2ccc(F)cc2)C(Cc2ccccc2)C(O)C(O)C(Cc2ccccc2)N1Cc1ccc(F)cc1 (centres unmarked) [Example 2E]
IC90 (HIV-1 (RF) in MT-2 cells; Human immunodeficiency virus 1, MT2, Table 2A, read-out: IC90): < 10 µg/mL | IC90 (HIV-1 (RF) in MT-2 cells; Human immunodeficiency virus 1, MT2, second table headed Table 2A, read-out: IC90): < 10 µg/mL | Ki (HIV protease; Table 2A, read-out: Ki): < 10 nM | Ki (HIV protease; [5]): < 10 nM

N#CN=C1N(Cc2cccc(C=O)c2)C(Cc2ccccc2)C(O)C(O)C(Cc2ccccc2)N1Cc1cccc(C=O)c1 (centres unmarked) [Example 1CP]
IC90 (HIV-1 (RF) in MT-2 cells; [4]): < 10 µg/mL | Ki (HIV protease; Ki): < 10 nM

CC(C)=CCN1C(=O)N(C)C(Cc2ccccc2)C(O)C(O)C1Cc1ccccc1 (centres unmarked) [Example 2D]
Ki (HIV protease; Table 2A, read-out: Ki): 10 to 1000 nM | Ki (HIV protease; [5]): 10 to 1000 nM

COCCOCCN1C(=O)N(CCOCCOC)C(Cc2ccccc2)C(O)C(O)C1Cc1ccccc1 (centres unmarked) [Example 1J]
Ki (HIV protease; Table 1a, read-out: Ki): > 1000 nM

C=CCN1C(=O)N(CC2CC2)C(Cc2ccccc2)C(O)C(O)C1Cc1ccccc1 (centres unmarked) [Example 1AW]
Ki (HIV protease; Table 1a, read-out: Ki): < 10 nM

C=CCN1C(=O)N(CC=C)[C@H](Cc2ccccc2)[C@H](O)[C@H]1[C@H](O)Cc1ccccc1 [Example 8AA]
Ki (HIV protease; Table 1e, read-out: Ki): 10 to 1000 nM

O=C1N(Cc2ccccc2)C(CCc2ccccc2)[C@@H](O)[C@@H](Cc2ccccc2)N1Cc1ccccc1 (some centres unmarked) [Example 8AD]
IC90 (HIV-1 (RF) in MT-2 cells; [1]): < 10 µg/mL | Ki (HIV protease; Table 1e, read-out: Ki): 10 to 1000 nM
